Assay [1] deals with Influenza A/PR/8/34 virus. The experiment in a line: In vivo protection of mice infected with influenza virus (mortality, survival time). The arrangement: species or system Balb/c mice. The settings on record: 10 mg/kg intragastric, once per day 5 days from 2 h post-infection, 10 mice, 15 days observed. How it is done:
80 SPF Balb/c mice, half male and half female, weighing 16.9˜22.6 g each, were stochastically divided into 8 groups: a normal control group, a virus model group, an oseltamivir phosphate capsule group (Tamiflu) (10 mg/kg), a peramivir intravenous injection group (10 mg/kg), and peramivir dry powder inhaler (example 3) groups I-IV (0.1, 0.3, 0.9, 2.7 mg/kg), ten mice in each group. […] Prior to daily administration, the peramivir intravenous injection was prepared into a 1.0 mg/mL liquor with 0.9% sodium chloride injection, and the oseltamivir phosphate capsule was prepared into a 0.5 mg/mL liquor with pure water. The mice in each group were all administered at 2 h post-modeling of the intranasal virus infection, wherein the mice in each peramivir dry powder inhaler group were administered with a corresponding dosage of peramivir dry powder inhaler, the mice in the peramivir intravenous injection group were intravenously injected with the peramivir liquid as per a dosage of 10 mL/kg, the oseltamivir phosphate capsule group were intragastrically administered with oseltamivir phosphate liquid as per a dosage of 20 mL/kg, and the normal control group and the model control group were sprayed with air of the same volume via their trachea. The mice were administered once per day, 5 days in succession. The first day (D1) of virus infection was counted from the next day of the intranasal virus inflection modeling.

The test system of assay [2] is Influenza A/PR/8/34 virus. Nature of the assay: Viral titer of mouse lung tissue (hemagglutination titer). The class given is in vivo, Balb/c mice. To be noted: 10 mg/kg intragastric once per day, lung suspension, logarithmic value of maximum dilution factor. The procedure: 84 SPF Balb/c mice, half male and half female, weighing 21.2˜26.6 g each, were stochastically divided into 7 groups: a normal control group, a virus model group, an oseltamivir phosphate capsule group (Tamiflu) (10 mg/kg), a peramivir I.V. group (10 mg/kg), and peramivir dry powder inhaler (example 3) groups I-III (0.1, 0.3, 0.9 mg/kg), twelve mice in each group (in each group, F04˜F06 and M04˜M06 were subjected to 24 h hemagglutination titer measurement, and F01˜F03 and M1˜M03 were subjected to 48 h hemagglutination titer measurement). […] Prior to daily administration, the peramivir I.V. injection was prepared into a 1.0 mg/mL liquor with 0.9% sodium chloride injection, and the oseltamivir phosphate capsule was prepared into a 0.5 mg/mL liquor with pure water. The mice in each group were all administered at 2 h post-modeling of the intranasal virus infection, wherein the mice in each peramivir DPI group were administered with a corresponding dosage of peramivir dry powder inhaler, the mice in the peramivir intravenous injection group were intravenously injected with the peramivir liquid as per a dosage of 10 mL/kg, the oseltamivir phosphate capsule group were intragastrically administered with oseltamivir phosphate liquid as per a dosage of 20 mL/kg, and the normal control group and the model control group were sprayed with air of the same volume via their trachea. The mice were administered once per day, 2 days in succession.
6 mice, half male and half female, were stochastically selected from each group at 24 h and 48 h post-administration, respectively. The mice were euthanized by cervical dislocation and their lungs were procured through dissection and then put in a homogenizer. 0.9% sodium chloride injection was added according to a ratio of the lung weight (g) to 0.9% sodium chloride injection (mL)=1:9, followed by grinding the homogenates into mouse lung suspensions. The mouse lung suspensions were subjected to centrifugation at 2500 rpm for 20 min under a 4° C. environment, with the supernatant being acquired for future use. Except the first column, 50 μL PBS (Phosphate Buffer Saline) was added into hemagglutination plate wells. 100 μL to-be-tested supernatant was added into each well in the first column, respectively, followed by adding with serial dilution till the wells in the 11th column, and then 50 μL 0.5% chicken erythrocyte was added into each well, respectively, followed by setting for 40 min; the hemagglutination plate was then tilted to observe whether the erythrocyte flew in a teardrop shape. […]

Setting [3] is: listed as oseltamivir phosphate.

Marks after values point to notes of the source that are not given here.

Regarding `CCOC(=O)C1=C[C@@H](OC(CC)CC)[C@H](NC(C)=O)[C@@H](N)C1` [Oseltamivir phosphate], the “Average number of survival days” value in assay [1] is 11.3 ± 4.8 days; in assay [1] (setting [3]) it was “significantly prolonged”. For the same molecule, the figures for the “Mortality rate (%)” value in assay [1] and in assay [1] (setting [3]) were 40** % and “significantly decreased”, respectively. For the same molecule, in assay [1], the Number of deaths is recorded as 4. The Number of survivals in assay [1] is given as 6. For the same molecule, the hemagglutination titer in assay [2] (24 h, n = 6) is 2.5 ± 0.5; in assay [2] (24 h, n = 6, listed as oseltamivir phosphate), “notably decreased”; in assay [2] (48 h, n = 6), 2.2 ± 0.8; in assay [2] (48 h, n = 6, listed as oseltamivir phosphate), “notably decreased”.

For the origin of these results see US20230052424A1, “Peramivir Dry Powder Inhaler and Method of Preparing the Same” (GUANGZHOU NUCIEN PHARMACEUTICAL CO., LTD, priority 2020, published 2023).
